Results: patent US20180186815A1, “PHARMACEUTICAL COMPOSITIONS, METHODS FOR THEIR PREPARATION AND THEIR USE IN THE TREATMENT OF CANCER” (Urifer Ltd., priority 2016, published 2018)
Where two headings read alike, the source gives them in different places.

What was measured:
Type in all cases: cell-based
[1] = tested on: colon cancer cell line RKO; assay: Growth profile / viability of RKO colon cancer cells, XTT test; conditions: 96 h, Control DMSO = 100%, read-out: percentage of viable cells, RKO
Experimental: (§1) The effect of the compounds Z522-XXX on the growth profile of cancer cells which express Fer was tested. The cells that were tested were: the colon cancer cell lines HT29 and HCT 116, RKO. The effect of each of the compounds on FS cells, a non malingnant fibroblastic cell line, was also studied.
(§2) Generally, cells were seeded in 96 wells microplates and were left to grow untreated overnight. Each of the compounds was dissolved in DMSO and was then added to each well in a final concentration of 5 μM. The concentration of DMSO in each well was 0.4% v/v. Untreated cells and cells subjected to 0.4% DMSO alone, served as controls. The percentage of viable cells in each well was determined 96 hours after compounds addition, using the XTT test (Berridge, M. V. et al, 2005).

[2] = Viability of FS non malignant fibroblastic cells, XTT test; conditions: FS cells (non-malignant fibroblastic cell line), Control DMSO = 100%, read-out: percentage of viable cells, FS
Experimental: as §1, §2

[3] = tested on: colon cancer cell line HT29; assay: Growth profile / viability of HT29 colon cancer cells, XTT test; conditions: Homo sapiens, HT-29, 96 h, Control DMSO = 100%, read-out: percentage of viable cells, HT29
Experimental: as §1, §2

[4] = tested on: colon cancer cell line HCT 116; assay: Growth profile / viability of HCT116 colon cancer cells, XTT test; conditions: Homo sapiens, HCT-116, 96 h, Control DMSO = 100%, read-out: percentage of viable cells, HCT116
Experimental: as §1, §2

SMILES	viability at 5 µM ([1]; first RKO column) [%]	viability at 5 µM ([1]; second RKO column) [%]	viability at 96 h, 5 µM ([2]; first FS column) [%]	viability at 96 h, 5 µM ([2]; second FS column) [%]	viability at 5 µM ([3]; first HT29 column) [%]	viability at 5 µM ([3]; second HT29 column) [%]	viability at 5 µM ([4]; first HCT116 column) [%]	viability at 5 µM ([4]; second HCT116 column) [%]
CN1CCN(C(=O)C2CCN(c3nn4cc(-c5ccc(N6CCN(C)CC6)cc5)nc4s3)CC2)CC1 [Compound Z522-0160, 2-{4-[(4-methylpiperazin-1-yl)carbonyl]-piperidin-1-yl}-6-[4-(4-methyl-piperazin-1-yl)-phenyl]imidazo[2,1-b][1,3,4]-thiadiazole]	92	109	101	104	117	91	105	108
CN1CCN(C(=O)C2CCN(c3nn4cc(-c5ccc(N6CCSCC6)cc5)nc4s3)CC2)CC1 [Compound Z522-0164, 2-{4-[(4-methylpiperazin-1-yl)carbonyl]-piperidin-1-yl}-6-(4-thiomorpholin-4-ylphenyl)-imidazo[2,1-b]-[1,3,4]thiadiazole]	60	63	104	95	50	42	80	97
CC1CCCN(c2ccc(-c3cn4nc(N5CCC(C(=O)N6CCN(C)CC6)CC5)sc4n3)cc2)C1 (stereo not drawn) [Compound Z522-0166, 2-{4-[(4-methylpiperazin-1-yl)carbonyl]-piperidin-1-yl}-6-[4-(3-methyl-piperidin-1-yl)-phenyl]imidazo[2,1-b][1,3,4]-thiadiazole]	6	6	101	92	4	4	30	23
CCN(CC)CCN(CC)C(=O)C1CCN(c2nn3cc(-c4ccc(Cl)cc4)nc3s2)CC1 [Compound Z522-0199, 1-[6-(4-chlorophenyl)imidazo[2,1-b][1,3,4]thiadiazol-2-yl]-N-[2-(diethylamino)ethyl]-N-ethylpiperidine-4-carboxamide]	–	–	19	21	–	1	–	–
CN1CCC(N(C)C(=O)C2CCN(c3nn4cc(-c5ccc(Cl)cc5)nc4s3)CC2)CC1 [Compound Z522-0202, 1-[6-(4-chlorophenyl)imidazo[2,1-b][1,3,4]thiadiazol-2-yl]-N-methyl-N-(1-methylpiperidin-4-yl)piperidine-4-carboxamide]	–	–	73	69	1	0	5	–
CN(C)CCN1CCN(C(=O)C2CCN(c3nn4cc(-c5ccc(Cl)cc5)nc4s3)CC2)CC1 [Compound Z522-0206]	–	–	2	6	–	–	1	–
CN1CCC(N2CCN(C(=O)C3CCN(c4nn5cc(-c6ccc(Cl)cc6)nc5s4)CC3)CC2)CC1 [Compound Z522-0207, 6-(4-chlorophenyl)-2-(4-{[4-(1-methylpiperidin-4-yl)piperazin-1-yl]carbonyl}piperidin-1-yl)imidazo[2,1-b][1,3,4]thiadiazole]	–	–	3	16	3	0	0	4
O=C(C1CCN(c2nn3cc(-c4ccc(Cl)cc4)nc3s2)CC1)N1CCCCC1CCN1CCOCC1 (stereo not drawn) [Compound Z522-0211, 6-(4-chlorophenyl)-2-(4-{[2-(2-morpholin-4-ylethyl)piperidin-1-yl]carbonyl}piperidin-1-yl)imidazo[2,1-b][1,3,4]thiadiazole]	–	–	75	81	64	60	72	61
O=C(C1CCN(c2nn3cc(-c4ccc(Cl)cc4)nc3s2)CC1)N1CCCCC1CN1CCCC1 (stereo not drawn) [Compound Z522-0212, 6-(4-chlorophenyl)-2-(4-{[2-(pyrrolidin-1-ylmethyl)piperidin-1-yl]carbonyl}piperidin-1-yl)imidazo[2,1-b][1,3,4]thiadiazole]	–	–	–	1	1	0	2	–
CN(C)CCNC(=O)CN1CCN(C(=O)C2CCN(c3nn4cc(-c5ccc(Cl)cc5)nc4s3)CC2)CC1 [Compound Z522-0218, 2-[4-({1-[6-(4-chlorophenyl)imidazo[2,1-b][1,3,4]thiadiazol-2-yl]piperidin-4-yl}carbonyl)piperazin-1-yl]-N-[2-(dimethylamino)ethyl] acetamide]	–	–	82	84	3	4	51	19
CN(C)CCN(Cc1ccco1)C(=O)C1CCN(c2nn3cc(-c4ccc(Cl)cc4)nc3s2)CC1 [Compound Z522-0220, 1-[6-(4-chlorophenyl)imidazo[2,1-b][1,3,4]thiadiazol-2-yl]-N-[2-(dimethylamino)ethyl]-N-(2-furylmethyl)piperidine-4-carboxamide]	–	–	61	49	0	–	1	3
CCN1CCN(CC2CCN(C(=O)C3CCN(c4nn5cc(-c6ccc(Cl)cc6)nc5s4)CC3)CC2)CC1 [Compound Z522-0221, 6-(4-chlorophenyl)-2-[4-({4-[(4-ethylpiperazin-1-yl)methyl]piperidin-1-yl}carbonyl)piperidin-1-yl]imidazo[2,1-b][1,3,4]thiadiazole]	–	–	–	–	–	–	1	1
CCN(CC)CCN(CC)C(=O)C1CCN(c2nn3cc(-c4ccc(C(C)C)cc4)nc3s2)CC1 [Compound Z522-0222, N-[2-(diethylamino)ethyl]-N-ethyl-1-[6-(4-isopropylphenyl)imidazo[2,1-b][1,3,4]thiadiazol-2-yl]piperidine-4-carboxamide]	–	–	56	56	–	–	1	–
CC(C)c1ccc(-c2cn3nc(N4CCC(C(=O)N5CCCN(C)CC5)CC4)sc3n2)cc1 [Compound Z522-0224, 6-(4-isopropylphenyl)-2-{4-[(4-methyl-1,4-diazepan-1-yl)carbonyl]piperidin-1-yl}imidazo[2,1-b][1,3,4]thiadiazole]	–	–	60	67	0	0	0	–
CC(C)c1ccc(-c2cn3nc(N4CCC(C(=O)N(C)C5CCN(C)CC5)CC4)sc3n2)cc1 [Compound Z522-0225, 1-[6-(4-isopropylphenyl)imidazo[2,1-b][1,3,4]thiadiazol-2-yl]-N-methyl-N-(1-methylpiperidin-4-yl)piperidine-4-carboxamide]	–	–	65	28	–	–	1	0
CC(C)c1ccc(-c2cn3nc(N4CCC(C(=O)N5CCN(C6CCN(C)CC6)CC5)CC4)sc3n2)cc1 [Compound Z522-0230, 6-(4-isopropylphenyl)-2-(4-{[4-(1-methylpiperidin-4-yl)piperazin-1-yl]carbonyl}piperidin-1-yl)imidazo[2,1-b][1,3,4]thiadiazole]	–	–	22	39	–	–	2	0
CC(C)c1ccc(-c2cn3nc(N4CCC(C(=O)N5CCCCC5CCN5CCOCC5)CC4)sc3n2)cc1 (stereo not drawn) [Compound Z522-0234, 6-(4-isopropylphenyl)-2-(4-{[2-(2-morpholin-4-ylethyl)piperidin-1-yl]carbonyl}piperidin-1-yl)imidazo[2,1-b][1,3,4]thiadiazole]	–	–	62	105	12	7	60	54
CC(C)c1ccc(-c2cn3nc(N4CCC(C(=O)N5CCCCC5CN5CCCC5)CC4)sc3n2)cc1 (stereo not drawn) [Compound Z522-0235, 6-(4-isopropylphenyl)-2-(4-{[2-(pyrrolidin-1-ylmethyl)piperidin-1-yl]carbonyl}piperidin-1-yl)imidazo[2,1-b][1,3,4]thiadiazole]	–	–	–	14	–	–	1	1
CCN1CCN(CC2CCN(C(=O)C3CCN(c4nn5cc(-c6ccc(C(C)C)cc6)nc5s4)CC3)CC2)CC1 [Compound Z522-0244, 2-[4-({4-[(4-ethylpiperazin-1-yl)methyl]piperidin-1-yl}carbonyl)piperidin-1-yl]-6-(4-isopropylphenyl) imidazo[2,1-b][1,3,4]thiadiazole]	–	0	–	–	1	0	–	0
